Source: the supplement of paper PMC12463676, “Small-molecule dissolution of stress granules by redox modulation benefits ALS models” (Nature Chemical Biology, 2025)

Legend:
lipoamide = compound: NC(=O)CCCCC1CCSS1 [lipoamide]; experiment: thermal stability z-score vs DMSO; higher = more thermally stabilized by treatment; conditions: HeLa, lipoamide concentration 100 µM
Description: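 Cellular thermal proteome profiling in HeLa cells. Cells were treated with 100 µM lipoamide for 1 h, with or without 1 mM arsenate for a further 1 h, then heated to ten temperatures (37-66.3 °C), and soluble protein was quantified by TMT mass spectrometry relative to 0.1% DMSO controls. The thermal stability score (sum of log2 fold changes minus the abundance score) was transformed to a z-score; mean of n = 3 experiments.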

potassium arsenate = compound: O=[As]([O-])(O)O.[K+] [potassium arsenate]; experiment: as above; conditions: HeLa; arsenate concentration 1 mM
Description: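 Cellular thermal proteome profiling in HeLa cells treated with 1 mM arsenate for 1 h (DMSO pretreatment), heated to ten temperatures (37-66.3 °C). Soluble protein was quantified by TMT mass spectrometry relative to DMSO controls; the thermal stability score was transformed to a z-score; mean of n = 3 experiments.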

[1] = arsenate co-treatment: 1 mM arsenate 1 h
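Also: each temperature applied for 3 min, abundance score taken as mean log2 fold change at the two lowest temperatures, z-score obtained by mean subtraction and division by SD.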

Chain of UniProt Q9UK97 (Q9UK97 whole entry): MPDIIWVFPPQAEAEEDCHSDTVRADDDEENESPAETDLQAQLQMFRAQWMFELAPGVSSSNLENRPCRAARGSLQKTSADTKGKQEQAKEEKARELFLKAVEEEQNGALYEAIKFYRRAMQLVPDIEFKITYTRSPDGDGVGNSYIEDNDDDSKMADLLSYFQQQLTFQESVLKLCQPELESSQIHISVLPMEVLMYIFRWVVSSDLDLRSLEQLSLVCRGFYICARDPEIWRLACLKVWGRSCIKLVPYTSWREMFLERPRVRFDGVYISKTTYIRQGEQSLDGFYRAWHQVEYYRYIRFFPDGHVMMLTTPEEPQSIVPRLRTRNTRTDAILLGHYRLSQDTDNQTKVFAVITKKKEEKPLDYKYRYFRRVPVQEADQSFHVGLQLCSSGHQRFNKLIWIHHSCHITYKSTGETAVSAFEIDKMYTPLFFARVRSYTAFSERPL
Chain of UniProt Q9UIM3 (Q9UIM3 whole entry): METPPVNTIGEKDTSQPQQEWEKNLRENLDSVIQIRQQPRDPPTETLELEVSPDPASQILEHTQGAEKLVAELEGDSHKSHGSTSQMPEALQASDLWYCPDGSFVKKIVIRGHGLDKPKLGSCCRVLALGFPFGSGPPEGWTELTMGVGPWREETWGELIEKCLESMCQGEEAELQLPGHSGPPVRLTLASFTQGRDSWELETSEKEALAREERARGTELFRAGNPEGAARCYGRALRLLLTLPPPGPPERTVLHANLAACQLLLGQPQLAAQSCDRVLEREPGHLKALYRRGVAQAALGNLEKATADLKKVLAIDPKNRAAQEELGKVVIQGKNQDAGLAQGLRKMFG
Chain of UniProt Q9NVF7 (Q9NVF7 whole entry): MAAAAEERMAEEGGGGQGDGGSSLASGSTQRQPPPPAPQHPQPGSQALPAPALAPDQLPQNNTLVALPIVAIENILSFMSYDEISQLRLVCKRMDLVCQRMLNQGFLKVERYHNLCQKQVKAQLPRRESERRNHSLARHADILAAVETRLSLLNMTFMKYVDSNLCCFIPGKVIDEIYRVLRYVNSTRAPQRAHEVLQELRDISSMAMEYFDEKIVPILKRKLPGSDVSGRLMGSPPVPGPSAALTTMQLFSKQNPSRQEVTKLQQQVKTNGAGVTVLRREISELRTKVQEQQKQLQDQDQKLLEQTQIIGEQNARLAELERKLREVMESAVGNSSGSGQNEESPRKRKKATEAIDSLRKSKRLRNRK
Chain of UniProt Q8TB52 (Q8TB52 whole entry): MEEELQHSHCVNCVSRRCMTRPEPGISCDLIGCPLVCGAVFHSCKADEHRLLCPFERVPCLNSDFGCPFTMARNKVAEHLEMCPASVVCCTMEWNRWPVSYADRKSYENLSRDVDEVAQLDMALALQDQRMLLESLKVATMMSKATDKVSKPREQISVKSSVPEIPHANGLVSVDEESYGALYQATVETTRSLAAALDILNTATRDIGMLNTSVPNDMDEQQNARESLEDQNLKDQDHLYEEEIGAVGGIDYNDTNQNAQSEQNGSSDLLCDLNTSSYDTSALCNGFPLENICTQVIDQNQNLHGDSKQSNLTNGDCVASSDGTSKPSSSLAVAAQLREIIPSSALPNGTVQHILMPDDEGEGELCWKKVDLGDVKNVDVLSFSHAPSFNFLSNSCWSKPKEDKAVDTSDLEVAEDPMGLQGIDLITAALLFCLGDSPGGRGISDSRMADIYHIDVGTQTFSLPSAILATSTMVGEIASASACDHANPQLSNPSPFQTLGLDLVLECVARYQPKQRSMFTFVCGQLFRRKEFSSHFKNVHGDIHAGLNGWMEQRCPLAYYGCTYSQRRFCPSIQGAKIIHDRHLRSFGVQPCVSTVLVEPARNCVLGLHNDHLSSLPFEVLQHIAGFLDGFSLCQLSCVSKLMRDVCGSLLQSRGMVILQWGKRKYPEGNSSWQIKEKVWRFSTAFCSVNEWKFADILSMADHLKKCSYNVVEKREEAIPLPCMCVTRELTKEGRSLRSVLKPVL
Chain of UniProt Q9UF56 (Q9UF56 whole entry): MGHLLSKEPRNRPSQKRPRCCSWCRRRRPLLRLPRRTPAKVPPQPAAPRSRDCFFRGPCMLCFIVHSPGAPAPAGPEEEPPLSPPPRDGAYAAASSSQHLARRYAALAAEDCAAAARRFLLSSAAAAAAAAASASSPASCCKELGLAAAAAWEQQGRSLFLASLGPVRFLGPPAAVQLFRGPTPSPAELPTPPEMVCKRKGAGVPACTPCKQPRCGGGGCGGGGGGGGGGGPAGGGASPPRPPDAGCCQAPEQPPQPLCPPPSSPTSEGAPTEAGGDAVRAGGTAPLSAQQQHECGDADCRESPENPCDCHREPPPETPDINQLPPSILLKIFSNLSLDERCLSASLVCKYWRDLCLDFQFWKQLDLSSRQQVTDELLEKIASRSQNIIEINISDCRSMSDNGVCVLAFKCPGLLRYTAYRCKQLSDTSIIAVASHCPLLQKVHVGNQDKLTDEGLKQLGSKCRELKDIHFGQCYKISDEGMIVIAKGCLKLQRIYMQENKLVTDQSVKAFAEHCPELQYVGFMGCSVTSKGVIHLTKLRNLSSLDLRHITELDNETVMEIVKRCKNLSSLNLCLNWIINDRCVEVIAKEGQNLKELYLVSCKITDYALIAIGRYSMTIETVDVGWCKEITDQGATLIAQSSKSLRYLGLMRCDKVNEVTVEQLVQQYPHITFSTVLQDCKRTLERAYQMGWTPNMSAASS
Chain of UniProt P26885 (P26885 whole entry): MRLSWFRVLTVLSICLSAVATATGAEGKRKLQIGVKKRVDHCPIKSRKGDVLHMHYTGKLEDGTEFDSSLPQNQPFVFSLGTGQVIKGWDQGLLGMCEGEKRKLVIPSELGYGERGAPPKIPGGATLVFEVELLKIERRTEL
Chain of UniProt Q00688 (Q00688 whole entry): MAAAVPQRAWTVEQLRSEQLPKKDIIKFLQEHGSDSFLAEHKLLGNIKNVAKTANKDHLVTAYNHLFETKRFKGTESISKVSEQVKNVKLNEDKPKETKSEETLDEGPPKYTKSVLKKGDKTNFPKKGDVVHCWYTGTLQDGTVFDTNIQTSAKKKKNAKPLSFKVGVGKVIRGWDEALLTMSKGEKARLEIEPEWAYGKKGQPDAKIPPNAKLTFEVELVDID
Chain of UniProt Q9BQL6 (Q9BQL6 whole entry): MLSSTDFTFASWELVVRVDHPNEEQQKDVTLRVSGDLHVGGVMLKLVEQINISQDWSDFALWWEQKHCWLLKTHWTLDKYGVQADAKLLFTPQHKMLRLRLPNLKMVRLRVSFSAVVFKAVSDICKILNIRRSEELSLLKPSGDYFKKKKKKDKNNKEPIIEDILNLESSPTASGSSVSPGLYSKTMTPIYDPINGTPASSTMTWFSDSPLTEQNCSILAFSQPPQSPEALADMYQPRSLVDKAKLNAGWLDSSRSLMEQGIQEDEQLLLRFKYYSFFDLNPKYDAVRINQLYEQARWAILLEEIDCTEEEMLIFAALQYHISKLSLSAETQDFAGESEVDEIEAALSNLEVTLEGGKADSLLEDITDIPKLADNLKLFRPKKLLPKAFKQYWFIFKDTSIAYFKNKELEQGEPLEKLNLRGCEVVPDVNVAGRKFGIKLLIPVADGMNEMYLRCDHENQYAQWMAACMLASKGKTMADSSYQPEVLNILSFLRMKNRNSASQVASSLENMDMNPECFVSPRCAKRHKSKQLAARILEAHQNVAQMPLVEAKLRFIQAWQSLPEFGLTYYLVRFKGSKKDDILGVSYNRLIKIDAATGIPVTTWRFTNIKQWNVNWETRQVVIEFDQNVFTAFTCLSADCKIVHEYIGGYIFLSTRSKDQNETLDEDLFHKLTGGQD
Chain of UniProt O94868 (O94868 whole entry): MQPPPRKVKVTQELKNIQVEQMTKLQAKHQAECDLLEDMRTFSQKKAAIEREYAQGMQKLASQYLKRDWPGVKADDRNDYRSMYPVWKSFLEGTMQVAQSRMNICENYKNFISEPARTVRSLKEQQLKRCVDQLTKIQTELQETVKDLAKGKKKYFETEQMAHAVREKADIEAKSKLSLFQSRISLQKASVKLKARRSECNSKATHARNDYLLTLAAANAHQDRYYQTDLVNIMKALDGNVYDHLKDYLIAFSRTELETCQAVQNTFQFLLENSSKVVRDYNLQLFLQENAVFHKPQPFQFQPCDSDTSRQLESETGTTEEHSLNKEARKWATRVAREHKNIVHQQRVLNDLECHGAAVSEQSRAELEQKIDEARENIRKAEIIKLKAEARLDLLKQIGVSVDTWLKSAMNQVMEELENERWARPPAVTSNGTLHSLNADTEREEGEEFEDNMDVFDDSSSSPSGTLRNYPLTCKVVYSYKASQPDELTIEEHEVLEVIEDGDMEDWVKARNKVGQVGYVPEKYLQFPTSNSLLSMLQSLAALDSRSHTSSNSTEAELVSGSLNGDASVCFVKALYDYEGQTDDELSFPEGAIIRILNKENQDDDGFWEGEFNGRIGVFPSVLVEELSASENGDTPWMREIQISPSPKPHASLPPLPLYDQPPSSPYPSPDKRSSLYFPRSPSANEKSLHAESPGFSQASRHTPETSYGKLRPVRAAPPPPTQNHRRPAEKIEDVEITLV
Chain of UniProt Q9NXK8 (Q9NXK8 whole entry): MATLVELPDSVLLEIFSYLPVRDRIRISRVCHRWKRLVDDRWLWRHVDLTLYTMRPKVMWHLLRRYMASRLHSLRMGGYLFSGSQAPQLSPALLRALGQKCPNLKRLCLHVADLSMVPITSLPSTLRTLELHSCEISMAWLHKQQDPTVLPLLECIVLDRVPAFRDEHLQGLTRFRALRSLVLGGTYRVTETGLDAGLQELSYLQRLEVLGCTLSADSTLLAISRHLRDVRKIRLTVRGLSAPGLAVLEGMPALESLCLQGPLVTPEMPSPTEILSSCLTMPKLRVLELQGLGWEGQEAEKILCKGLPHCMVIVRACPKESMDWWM
Chain of UniProt P62942 (P62942 whole entry): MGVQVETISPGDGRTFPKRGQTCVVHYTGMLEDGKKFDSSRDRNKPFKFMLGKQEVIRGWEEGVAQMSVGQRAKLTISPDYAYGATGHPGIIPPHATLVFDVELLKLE

| Target | thermal stability z-score (lipoamide; [1]) | thermal stability z-score (lipoamide; arsenate co-treatment: none) | thermal stability z-score (potassium arsenate) |
| --- | --- | --- | --- |
| FBN1 (UniProt P35555) | -2.81 | -2.71 | 0.276 |
| FBXL12 (UniProt Q9NXK8) | -0.195 | 0.0639 | -0.29 |
| FBXL16 (UniProt Q8N461) | -0.137 | 0.0698 | -0.0763 |
| FBXL17 (UniProt Q9UF56) | 0.0273 | -0.0196 | -0.139 |
| FBXL18 (UniProt Q96ME1) | 0.241 | 0.119 | -0.711 |
| FBXL20 (UniProt Q96IG2) | -1.2 | -1.06 | -0.992 |
| FBXO2 (UniProt Q9UK22) | -0.743 | 0.137 | 0.0529 |
| FBXO3 (UniProt Q9UK99) | -0.185 | -0.251 | -1.06 |
| FBXO4 (UniProt Q9UKT5) | -0.0696 | 0.534 | -0.473 |
| FBXO7 (UniProt Q9Y3I1) | -0.692 | -0.573 | -0.35 |
| FBXO9 (UniProt Q9UK97) | -0.495 | -1.62 | -0.61 |
| FBXO21 (UniProt O94952) | -0.226 | -1.07 | 0.0266 |
| FBXO22 (UniProt Q8NEZ5) | 0.0761 | -0.0297 | -0.412 |
| FBXO28 (UniProt Q9NVF7) | 0.0993 | -0.125 | -0.115 |
| FBXO30 (UniProt Q8TB52) | -0.102 | -0.208 | -0.959 |
| FBXO38 (UniProt Q6PIJ6) | 0.0679 | -0.115 | -0.981 |
| FBXO45 (UniProt P0C2W1) | 0.369 | 0.292 | 0.229 |
| FBXW11 (UniProt Q9UKB1) | 0.162 | -0.0669 | 0.814 |
| FCHO2 (UniProt Q0JRZ9) | -0.472 | -0.218 | 0.405 |
| FCHSD2 (UniProt O94868) | -0.0527 | -0.175 | -0.184 |
| FDFT1 (UniProt P37268) | -0.0123 | 0.444 | 0.108 |
| FDPS (UniProt P14324) | -0.000727 | -0.16 | -0.437 |
| FDX1 (UniProt P10109) | -0.234 | -0.162 | -0.0279 |
| FDXR (UniProt P22570) | -0.331 | -0.428 | 0.404 |
| FECH (UniProt P22830) | 0.24 | 0.0849 | -0.203 |
| FEM1B (UniProt Q9UK73) | 0.128 | 0.146 | -1.27 |
| FEN1 (UniProt P39748) | -0.489 | 0.469 | 0.572 |
| FER (UniProt P16591) | 0.209 | 0.182 | 0.326 |

| Target | thermal stability z-score (lipoamide; [1]) | thermal stability z-score (lipoamide; arsenate co-treatment: none) | thermal stability z-score (potassium arsenate) |
| --- | --- | --- | --- |
| FERMT1 (UniProt Q9BQL6) | 0.0116 | 0.904 | 1.07 |
| FERMT2 (UniProt Q96AC1) | 0.0975 | -0.153 | 0.203 |
| FGD4 (UniProt Q96M96) | 0.0849 | -0.0145 | -0.203 |
| FGF2 (UniProt P09038) | -0.298 | 0.269 | -1.74 |
| FGFR1OP2 (UniProt Q9NVK5) | -0.0532 | 0.0859 | 0.0446 |
| FGFR1OP (UniProt O95684) | 0.163 | -0.0584 | 1.33 |
| FH (UniProt P07954) | 0.0704 | 0.0826 | -1.66 |
| FHL1 (UniProt Q13642) | 0.358 | 0.294 | -0.17 |
| FHL2 (UniProt Q14192) | -1.64 | -0.905 | -6.31 |
| FHL3 (UniProt Q13643) | 0.648 | -0.254 | -3.01 |
| FHOD1 (UniProt Q9Y613) | -0.261 | -0.0798 | 0.2 |
| FIBP (UniProt O43427) | 0.453 | 0.0779 | 0.125 |
| FIGNL1 (UniProt Q6PIW4) | -0.113 | -0.0699 | -1 |
| FIP1L1 (UniProt Q6UN15) | 0.903 | 0.265 | -1.73 |
| FIS1 (UniProt Q9Y3D6) | -0.114 | 0.595 | -0.678 |
| FKBP1A (UniProt P62942) | 0.374 | 0.262 | -1.96 |
| FKBP2 (UniProt P26885) | -3.2 | -3.35 | 0.177 |
| FKBP3 (UniProt Q00688) | 0.676 | 0.552 | -0.406 |
| FKBP4 (UniProt Q02790) | 0.198 | 0.244 | 0.191 |
| FKBP5 (UniProt Q13451) | -0.637 | -0.429 | -0.667 |
| FKBP7 (UniProt Q9Y680) | -4.17 | -4.05 | -0.253 |
| FKBP8 (UniProt Q14318) | -1.33 | -0.861 | 1.05 |
| FKBP9 (UniProt O95302) | -3.58 | -2.22 | 0.508 |
| FKBP10 (UniProt Q96AY3) | -3.58 | -2.95 | 0.321 |
| FKBP14 (UniProt Q9NWM8) | -3.79 | -2.85 | -0.591 |
| FKBP15 (UniProt Q5T1M5) | -0.422 | -0.17 | 0.523 |
| FKBPL (UniProt Q9UIM3) | 0.222 | 0.087 | -0.0646 |
